Data: patent US8927587B2, “Chemical compounds” (Pfizer Limited, priority 2012, dated 2015)

Target: T1, hNav1.8 (Homo sapiens, UniProt Q9Y5Y9)
T1 construct: host or cells: HEK cells, stably transfected
Experiment: hNav1.8 whole-cell patch-clamp electrophysiology (conventional or PatchXpress 7000) in stably transfected HEK cells
Assay type: cell-based
Details: estimated IC50 calculated from single point % inhibition; HEK cells expressing hNav1.8; 8 sec prepulse to V1/2, 20 msec step to 0 mV; average of replicates; read-out: Nav1.8 EIC50
In short: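 Whole-cell voltage clamp at 22-24 °C in HEK cells stably expressing hNav1.8, manually or on PatchXpress. Current evoked by 20 msec step to 0 mV after 8 s prepulse to each cell's inactivation V1/2; single-concentration % inhibition converted to estimated IC50, using only 20-80% inhibition values, averaged over replicates.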

T1 sequence (Q9Y5Y9 whole entry): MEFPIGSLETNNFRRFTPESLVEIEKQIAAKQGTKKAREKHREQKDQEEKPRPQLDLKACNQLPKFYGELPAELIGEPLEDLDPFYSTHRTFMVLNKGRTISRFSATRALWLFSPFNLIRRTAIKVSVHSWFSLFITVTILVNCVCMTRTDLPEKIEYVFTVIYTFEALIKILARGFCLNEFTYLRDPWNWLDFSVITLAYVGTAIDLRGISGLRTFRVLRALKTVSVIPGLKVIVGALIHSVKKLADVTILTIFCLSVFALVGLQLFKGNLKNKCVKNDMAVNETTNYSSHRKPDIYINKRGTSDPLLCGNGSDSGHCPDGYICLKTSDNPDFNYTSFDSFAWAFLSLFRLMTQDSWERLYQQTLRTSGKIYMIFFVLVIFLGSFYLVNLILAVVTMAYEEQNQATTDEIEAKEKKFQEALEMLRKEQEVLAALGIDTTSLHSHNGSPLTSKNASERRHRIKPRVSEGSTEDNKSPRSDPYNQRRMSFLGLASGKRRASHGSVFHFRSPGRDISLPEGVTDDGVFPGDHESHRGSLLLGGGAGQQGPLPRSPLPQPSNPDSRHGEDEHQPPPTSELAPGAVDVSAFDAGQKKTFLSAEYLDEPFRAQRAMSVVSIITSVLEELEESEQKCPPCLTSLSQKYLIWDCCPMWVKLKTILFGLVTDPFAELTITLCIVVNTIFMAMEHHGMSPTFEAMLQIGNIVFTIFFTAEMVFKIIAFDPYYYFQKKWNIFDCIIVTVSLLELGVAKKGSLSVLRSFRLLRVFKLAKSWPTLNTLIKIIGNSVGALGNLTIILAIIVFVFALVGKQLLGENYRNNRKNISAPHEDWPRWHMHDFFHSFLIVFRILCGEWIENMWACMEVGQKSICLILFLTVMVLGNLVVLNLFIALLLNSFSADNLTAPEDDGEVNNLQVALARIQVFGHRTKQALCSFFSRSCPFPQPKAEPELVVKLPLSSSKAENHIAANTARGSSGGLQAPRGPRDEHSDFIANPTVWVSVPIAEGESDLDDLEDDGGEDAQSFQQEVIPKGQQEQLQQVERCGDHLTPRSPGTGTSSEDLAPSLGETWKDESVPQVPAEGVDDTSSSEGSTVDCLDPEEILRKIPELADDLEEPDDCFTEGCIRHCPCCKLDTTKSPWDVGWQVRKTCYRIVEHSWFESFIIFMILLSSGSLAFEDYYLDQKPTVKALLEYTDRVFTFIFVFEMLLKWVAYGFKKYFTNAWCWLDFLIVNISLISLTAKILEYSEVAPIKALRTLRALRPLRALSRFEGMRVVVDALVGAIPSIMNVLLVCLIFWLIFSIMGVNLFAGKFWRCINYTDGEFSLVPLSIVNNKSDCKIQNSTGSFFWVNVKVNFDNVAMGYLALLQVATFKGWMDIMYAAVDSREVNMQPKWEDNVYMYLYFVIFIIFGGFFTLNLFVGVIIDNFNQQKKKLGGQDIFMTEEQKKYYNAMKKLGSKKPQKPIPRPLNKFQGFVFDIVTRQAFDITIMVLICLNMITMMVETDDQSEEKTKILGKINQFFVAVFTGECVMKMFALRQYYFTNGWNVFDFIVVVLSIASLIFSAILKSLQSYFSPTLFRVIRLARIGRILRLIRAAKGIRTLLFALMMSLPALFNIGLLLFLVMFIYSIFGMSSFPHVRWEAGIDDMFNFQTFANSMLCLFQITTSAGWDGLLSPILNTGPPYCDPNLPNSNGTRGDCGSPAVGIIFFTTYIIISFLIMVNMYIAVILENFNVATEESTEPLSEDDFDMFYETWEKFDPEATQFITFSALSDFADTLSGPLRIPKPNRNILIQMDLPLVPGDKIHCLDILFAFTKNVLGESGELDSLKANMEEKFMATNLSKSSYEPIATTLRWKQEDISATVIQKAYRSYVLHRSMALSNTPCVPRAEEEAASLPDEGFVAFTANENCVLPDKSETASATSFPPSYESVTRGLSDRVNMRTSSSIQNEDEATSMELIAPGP

NC(=O)C[C@H](N)c1nc2cc(C34CC5CC(CC(C5)C3)C4)ccc2[nH]1 [Example 152, (3S)-3-Amino-3-[5-(tricyclo[3.3.1.1^3,7]dec-1-yl)-1H-benzimidazol-2-yl]propanamide] showed an IC50 of 101 nM.

Work on CN[C@H](c1nc2cc(C(C)(C)C)ccc2[nH]1)[C@@H](C)O [Example 79, (1R,2R)-1-(5-tert-Butyl-1H-benzimidazol-2-yl)-1-(methylamino)propan-2-ol] yielded an IC50 of 168 nM.

C[C@@H](C(=O)N(C)C)[C@H](N)c1nc2cc(C(C)(C)C)ccc2[nH]1 [Example 149, (2R,3S)-3-Amino-3-(5-tert-butyl-1H-benzimidazol-2-yl)-N,N,2-trimethylpropanamide] gave an IC50 of 303 nM.

N#Cc1ccc(-c2ccc3[nH]c(C4(N)Cc5ccccc5C4)nc3c2)cc1 [Example 34, 4-[2-(2-Amino-2,3-dihydro-1H-inden-2-yl)-1H-benzimidazol-5-yl]benzonitrile] was tested, and the IC50 was 30.6 nM.

For CC(C)(C)c1ccc2[nH]c(C3(N)Cc4ccccc4C3)nc2c1 [Example 2, 2-(5-tert-Butyl-1H-benzimidazol-2-yl)-2,3-dihydro-1H-inden-2-amine], the IC50 was 76 nM.

With CC(C)(C)c1ccc2[nH]c([C@@H]3C[C@@H](O)CN3)nc2c1 [Example 26, (3R,5S)-5-(5-tert-Butyl-1H-benzimidazol-2-yl)pyrrolidin-3-ol] the IC50 was 31.5 nM.

Work on CC(C)CC[C@H](N)c1nc2cc(C(C)(C)C)ccc2[nH]1 [Example 1, (1S)-1-(5-tert-Butyl-1H-benzimidazol-2-yl)-4-methylpentan-1-amine] yielded an IC50 of 127 nM.

With CC(C)(C)c1ccc2[nH]c([C@@H]3C[C@H](F)CN3)nc2c1 [Example 132, 5-tert-Butyl-2-[(2S,4S)-4-fluoropyrrolidin-2-yl]-1H-benzimidazole] the IC50 was 191 nM.

C[C@@H](O)[C@H](N)c1nc2cc(-c3ccc(C#N)cc3C(F)(F)F)ccc2[nH]1 [Example 100, 4-{2-[(1R,2R)-1-Amino-2-hydroxypropyl]-1H-benzimidazol-5-yl}-3-(trifluoromethyl)benzonitrile] showed an IC50 of 82.5 nM.

CC1(C)[C@@H]2[C@@H](c3nc4cc(-c5ccc(C#N)cc5)ccc4[nH]3)NC[C@@H]21 [Example 55, 4-{2-[(1R,2S,5S)-6,6-dimethyl-3-azabicyclo[3.1.0]hex-2-yl]-1H-benzimidazol-5-yl}benzonitrile] showed an IC50 of 77.4 nM.

In the case of CC[C@@H](O)[C@H](N)c1nc2cc(C(C)(C)C)ccc2[nH]1 [Example 139, (1R,2R)-1-Amino-1-(5-tert-butyl-1H-benzimidazol-2-yl)butan-2-ol], the IC50 is reported as 43.5 nM.

CC(C)c1ccc2[nH]c([C@@H](N)[C@H](O)C(C)C)nc2c1 [Example 125, (1R,2R)-1-Amino-3-methyl-1-[5-(propan-2-yl)-1H-benzimidazol-2-yl]butan-2-ol] gave an IC50 of 2220 nM.

COC(C)(C)C(N)c1nc2cc(C(C)(C)C)ccc2[nH]1 (stereo not drawn) [Example 27, 1-(5-tert-Butyl-1H-benzimidazol-2-yl)-2-methoxy-2-methylpropan-1-amine] was tested, and the IC50 was 153 nM.

With C[C@@H](C(N)=O)[C@H](N)c1nc2cc(C(C)(C)C)ccc2[nH]1 (single isomer, unassigned) [Example 103] the IC50 was 15.4 nM.

In the case of CC(C)(C)c1ccc2[nH]c([C@@H](N)C(C)(C)O)nc2c1 [Example 102, (1R)-1-Amino-1-(5-tert-butyl-1H-benzimidazol-2-yl)-2-methylpropan-2-ol], the IC50 is reported as 71 nM.

CC(C)(C)c1ccc2[nH]c([C@H]3C[C@@H](O)CN3)nc2c1 [Example 24, (3R,5R)-5-(5-tert-Butyl-1H-benzimidazol-2-yl)pyrrolidin-3-ol] gave an IC50 of 58 nM.

Compound CCC(C)(C)c1ccc2[nH]c([C@H]3NCC[C@@H]3O)nc2c1 [Example 37, (2R,3S)-2-[5-(2-Methylbutan-2-yl)-1H-benzimidazol-2-yl]pyrrolidin-3-ol] has an IC50 of 650 nM.

For CCC(C)(C)c1ccc2[nH]c([C@@H](N)COC)nc2c1 [Example 31, (1R)-2-Methoxy-1-[5-(2-methylbutan-2-yl)-1H-benzimidazol-2-yl]ethanamine], the IC50 was 125 nM.
